Test results as given in ChEMBL document CHEMBL1201862, “PubChem BioAssay data set” (2004).
Active and inactive are the calls of the source.

Assays:
[1] = target: T1, Orexin receptor type 2 (Homo sapiens, UniProt O43614); test: Counterscreen assay for antagonists of the orexin 1 receptor (OX1R; HCRTR1): Fluorescence-based cell-based dose response assay for antagonists of the orexin 2 receptor (OX2R; HCRTR2), run by assay provider.; type: functional
T1 sequence (O43614 whole entry): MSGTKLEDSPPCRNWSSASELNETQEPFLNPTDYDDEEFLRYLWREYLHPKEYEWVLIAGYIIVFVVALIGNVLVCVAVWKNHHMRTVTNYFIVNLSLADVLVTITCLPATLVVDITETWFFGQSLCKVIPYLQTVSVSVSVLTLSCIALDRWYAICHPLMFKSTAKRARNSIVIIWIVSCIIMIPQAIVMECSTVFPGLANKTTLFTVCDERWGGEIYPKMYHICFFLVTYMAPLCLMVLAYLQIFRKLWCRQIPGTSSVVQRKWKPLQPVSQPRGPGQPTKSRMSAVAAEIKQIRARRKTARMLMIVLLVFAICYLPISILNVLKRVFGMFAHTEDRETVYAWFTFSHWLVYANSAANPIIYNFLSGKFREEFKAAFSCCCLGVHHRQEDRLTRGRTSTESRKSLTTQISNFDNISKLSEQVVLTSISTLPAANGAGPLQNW

[2] = target: T1, Orexin receptor type 2; test: Counterscreen assay for antagonists of the orexin 1 receptor (OX1R; HCRTR1): Homogeneous Time Resolved Fluorescence (HTRF)-based cell-based dose response assay for antagonists of the orexin 2 receptor (OX2R; HCRTR2), run by assay provider.; type: functional
[3] = target: T2, Orexin/Hypocretin receptor type 1 (Homo sapiens, UniProt O43613); test: Homogeneous Time Resolved Fluorescence (HTRF)-based cell-based high throughput dose response assay for antagonists of the orexin 1 receptor (OX1R; HCRTR1). [Related pubchem assays (depositor defined):AID434989, AID435008, AID463079, AID485270, AID492963, AID492964, AID492965, AID493232, AID504717, AID504718]; type: functional
T2 sequence (O43613 whole entry): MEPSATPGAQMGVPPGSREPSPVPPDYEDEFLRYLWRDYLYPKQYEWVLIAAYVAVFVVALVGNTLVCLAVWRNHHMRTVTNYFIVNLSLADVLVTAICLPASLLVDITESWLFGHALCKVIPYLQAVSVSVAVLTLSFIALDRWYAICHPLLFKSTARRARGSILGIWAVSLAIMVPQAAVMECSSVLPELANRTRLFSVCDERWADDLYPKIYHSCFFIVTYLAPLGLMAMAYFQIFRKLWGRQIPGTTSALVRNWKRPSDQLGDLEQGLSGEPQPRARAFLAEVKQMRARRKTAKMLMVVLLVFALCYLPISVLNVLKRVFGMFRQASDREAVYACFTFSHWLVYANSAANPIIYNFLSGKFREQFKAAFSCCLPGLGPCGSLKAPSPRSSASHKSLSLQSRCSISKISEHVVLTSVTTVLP

[4] = target: T2, Orexin/Hypocretin receptor type 1; test: Fluorescence-based cell-based high throughput dose response assay for antagonists of the orexin 1 receptor (OX1R; HCRTR1). [Related pubchem assays (depositor defined):AID434989, AID435008, AID463079, AID485270, AID492963, AID492964, AID492965, AID493232, AID504717, AID504718]; type: functional
[5] = test system: CHO-K1; test: (§1) Counterscreen for antagonists of the orexin 1 receptor (OX1R; HCRTR1): Homogeneous time resolved fluorescence (HTRF)-based cell-based dose response assay to identify antagonists of the parental CHO-K1 cell line. [Related pubchem assays (depositor defined):AID434989, AID435008, AID463079, AID485270, AID492963, AID492964, AID492965, AID493232, AID504699, AID504701]; type: functional; details: Cricetulus griseus
[6] = target: T3, Estrogen receptor (Homo sapiens, UniProt P03372);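 further: potency for inhibiting coactivator peptide recruitment to the receptor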
T3 sequence (P03372 whole entry): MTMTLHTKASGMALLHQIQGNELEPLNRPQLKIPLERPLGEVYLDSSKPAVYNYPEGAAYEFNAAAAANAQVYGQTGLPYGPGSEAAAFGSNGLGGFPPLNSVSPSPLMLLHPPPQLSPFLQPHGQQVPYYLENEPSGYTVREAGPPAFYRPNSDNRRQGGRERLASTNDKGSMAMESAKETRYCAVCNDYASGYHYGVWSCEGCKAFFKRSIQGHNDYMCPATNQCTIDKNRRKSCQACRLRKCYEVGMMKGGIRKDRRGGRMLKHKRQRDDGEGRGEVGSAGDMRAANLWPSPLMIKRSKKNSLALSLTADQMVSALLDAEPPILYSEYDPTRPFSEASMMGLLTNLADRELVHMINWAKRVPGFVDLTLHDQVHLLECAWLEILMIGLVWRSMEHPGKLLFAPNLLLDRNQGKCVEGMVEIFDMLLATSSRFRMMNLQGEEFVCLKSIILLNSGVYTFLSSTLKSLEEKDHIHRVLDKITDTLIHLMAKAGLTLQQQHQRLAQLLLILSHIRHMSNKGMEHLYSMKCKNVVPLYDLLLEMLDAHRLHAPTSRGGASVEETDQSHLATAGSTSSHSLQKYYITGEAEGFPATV

[7] = as §1, with “Fluorescence-based” for “Homogeneous time resolved fluorescence (HTRF)-based”, “cell-based high throughput” for “cell-based”, “CHO” for “CHO-K1”; type: functional
[8] = Luminescence Cell-Based Dose Confirmation HTS to Identify Activators of 5'UTR Stem-Loop Driven Alpha-Synuclein mRNA Translation in H4 Neuroglioblastoma Cells. [Related pubchem assays: 1829 (Project Summary), 1814 (Primary HTS)]; type: functional
[9] = Luminescence Cell-Based Dose Response HTS to Identify Activators of Luciferase Translation or Activity in H4 […] Cells. [Related pubchem assays: 1829 (Project Summary), 1814 (Primary HTS)]; type: functional
[10] = test system: H4; test: Luminescence Cell-Based Dose Response HTS to Identify Activators of 5'UTR Stem-Loop Driven Prion Protein mRNA Translation in H4 Neuroglioblastoma Cells. [Related pubchem assays: 1829 (Project Summary), 1814 (Primary HTS)]; type: functional; details: Homo sapiens
[11] = target: T4, DNA repair and recombination protein RAD54-like (Homo sapiens, UniProt Q92698); test: inhibitors of human RAD54 branch migration, confirmation, biochemical, fluorescence, cherry-picked samples, dose series (AID 651657); type: functional
T4 sequence (Q92698 whole entry): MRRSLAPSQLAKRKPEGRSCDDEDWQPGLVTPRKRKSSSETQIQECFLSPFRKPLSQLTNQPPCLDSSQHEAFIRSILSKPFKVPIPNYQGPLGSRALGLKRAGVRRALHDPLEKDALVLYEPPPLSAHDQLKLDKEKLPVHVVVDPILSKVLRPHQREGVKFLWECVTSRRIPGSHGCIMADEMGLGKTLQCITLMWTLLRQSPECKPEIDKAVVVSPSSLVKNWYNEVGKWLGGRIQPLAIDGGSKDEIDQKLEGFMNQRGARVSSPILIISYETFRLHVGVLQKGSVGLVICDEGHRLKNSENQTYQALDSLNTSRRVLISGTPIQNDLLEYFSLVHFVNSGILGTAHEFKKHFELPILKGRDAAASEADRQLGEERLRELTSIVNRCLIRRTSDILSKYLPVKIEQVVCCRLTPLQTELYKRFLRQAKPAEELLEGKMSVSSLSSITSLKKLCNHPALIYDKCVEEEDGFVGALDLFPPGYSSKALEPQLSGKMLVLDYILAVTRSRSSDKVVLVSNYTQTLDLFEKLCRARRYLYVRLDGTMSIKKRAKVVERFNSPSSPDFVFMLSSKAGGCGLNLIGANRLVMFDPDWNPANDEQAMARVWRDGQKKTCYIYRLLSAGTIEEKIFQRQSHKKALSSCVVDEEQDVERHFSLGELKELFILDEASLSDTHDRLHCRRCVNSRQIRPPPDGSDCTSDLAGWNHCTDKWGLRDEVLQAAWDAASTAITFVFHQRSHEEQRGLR

[12] = target: T5, DNA repair protein RAD52 homolog (Homo sapiens, UniProt P43351); type: functional, biochemical
T5 sequence (P43351 whole entry): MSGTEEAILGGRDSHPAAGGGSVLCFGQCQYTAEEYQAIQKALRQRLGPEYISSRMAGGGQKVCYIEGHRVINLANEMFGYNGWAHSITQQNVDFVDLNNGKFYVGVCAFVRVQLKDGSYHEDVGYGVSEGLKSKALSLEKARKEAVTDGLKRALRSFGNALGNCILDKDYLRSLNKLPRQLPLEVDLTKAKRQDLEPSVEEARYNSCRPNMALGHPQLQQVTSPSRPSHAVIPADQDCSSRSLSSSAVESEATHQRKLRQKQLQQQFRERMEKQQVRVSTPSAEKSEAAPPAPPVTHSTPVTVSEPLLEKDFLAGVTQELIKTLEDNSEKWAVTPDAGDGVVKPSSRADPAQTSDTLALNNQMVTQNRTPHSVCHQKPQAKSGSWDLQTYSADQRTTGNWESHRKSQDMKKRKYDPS

[13] = target: T6, Hepatocyte nuclear factor 4-alpha (Homo sapiens, UniProt P41235); type: functional, cell-based;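 further: biochemical luminescence-based dose-response counterscreen measuring inhibition of HNF4 dimerization, run alongside a screen for blockers of ABHD5–perilipin-5 interaction; split luciferase complementation of HNF4 fusion proteins in cell lysate measuring dimerization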
T6 sequence (P41235 whole entry): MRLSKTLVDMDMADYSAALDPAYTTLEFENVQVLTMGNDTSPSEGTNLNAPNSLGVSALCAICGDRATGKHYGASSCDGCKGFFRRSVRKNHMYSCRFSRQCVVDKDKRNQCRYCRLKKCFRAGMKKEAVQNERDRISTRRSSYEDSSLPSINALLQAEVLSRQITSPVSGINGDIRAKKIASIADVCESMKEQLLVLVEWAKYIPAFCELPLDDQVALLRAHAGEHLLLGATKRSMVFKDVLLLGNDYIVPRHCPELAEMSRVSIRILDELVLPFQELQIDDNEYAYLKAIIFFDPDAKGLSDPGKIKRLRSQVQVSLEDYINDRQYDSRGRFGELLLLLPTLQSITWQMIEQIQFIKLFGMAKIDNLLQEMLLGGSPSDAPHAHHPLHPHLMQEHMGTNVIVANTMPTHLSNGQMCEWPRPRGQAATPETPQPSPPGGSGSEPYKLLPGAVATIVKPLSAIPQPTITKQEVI

[14] = target: T7, Sentrin-specific protease 1 (Homo sapiens, UniProt Q9P0U3); test: potency of human SENP1 inhibitors, dose response, biochemical, kinetic FRET (AID 651697); type: functional; details: read-out: IC50_Mean
T7 sequence (Q9P0U3 whole entry): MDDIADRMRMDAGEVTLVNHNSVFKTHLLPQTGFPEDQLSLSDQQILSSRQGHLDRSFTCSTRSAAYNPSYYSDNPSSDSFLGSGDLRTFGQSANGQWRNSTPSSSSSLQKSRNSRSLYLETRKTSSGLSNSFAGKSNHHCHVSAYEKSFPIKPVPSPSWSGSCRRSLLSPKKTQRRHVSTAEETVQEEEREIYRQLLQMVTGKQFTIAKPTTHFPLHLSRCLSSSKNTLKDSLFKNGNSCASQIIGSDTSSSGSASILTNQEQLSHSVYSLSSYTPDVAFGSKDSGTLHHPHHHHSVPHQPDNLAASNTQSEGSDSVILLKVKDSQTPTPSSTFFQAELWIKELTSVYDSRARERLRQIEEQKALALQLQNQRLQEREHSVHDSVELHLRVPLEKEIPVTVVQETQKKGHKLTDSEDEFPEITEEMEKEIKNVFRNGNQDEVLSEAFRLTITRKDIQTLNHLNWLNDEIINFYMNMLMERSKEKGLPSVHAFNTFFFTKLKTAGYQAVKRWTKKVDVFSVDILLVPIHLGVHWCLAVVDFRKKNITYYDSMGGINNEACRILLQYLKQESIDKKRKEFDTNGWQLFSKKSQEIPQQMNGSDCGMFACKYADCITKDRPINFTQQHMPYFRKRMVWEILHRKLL

[15] = target: T7, Sentrin-specific protease 1; test: Dose response confirmation of small molecule inhibitors of the catalytic domain of the SUMO protease, SENP1 in a FRET assay.; type: functional; details: read-out: IC50_Mean

CCn1c(SCC(=O)Nc2ccc3c(c2)c2ccccc2n3CC)nnc1-c1cnccn1
IC50 [1]: 38.9 µM (inactive) | IC50 [2]: 23.1 µM (inactive) | IC50 [3]: 0.0548 µM (active) | IC50 [4]: 2.18 µM (active) | IC50 [5]: > 66.3 µM (inactive) | IC50 [6]: > 50 µM (not active) | IC50 [7]: > 49.8 µM (inactive)

N#CC(=C1SC=CS1)c1nc(-c2ccccc2)cs1
IC50 [1]: 6.66 µM (active) | EC50 [8]: 0.204 µM (active) | IC50 [2]: 4.31 µM (active) | IC50 [3]: 0.749 µM (active) | IC50 [4]: 1.02 µM (active) | IC50 [5]: > 66.2 µM (inactive) | EC50 [9]: 53.4 µM (active) | EC50 [10]: > 120 µM (not active) | IC50 [7]: > 49.7 µM (inactive)

COC(=O)c1c(NC(=O)c2ccc(S(=O)(=O)N3CCOCC3)cc2)sc2c1CCN(C(C)C)C2
AC50 [11]: 14.7 µM (active)

CC(=O)Nc1cc(-c2cccc(C(=O)NCCN(C)C)c2)cn2c(-c3ccccc3)cnc12
AC50 [12]: 4.01 µM (active) | AC50 [11]: 33.5 µM (active)

N#Cc1ccc(C(C(=O)NCc2ccccc2)n2c(=O)c(-c3ccco3)nc3ccccc32)cc1 (stereo not given)
IC50 [13]: 1.3 µM (active)

N#Cc1ccc(-c2nc3ccc(Br)cn3c2Cc2ccccc2C(F)(F)F)cc1
IC50 [14]: 13.1 µM (active) | IC50 [15]: 11.4 µM (active)

COc1ccc(C(C(=O)NC(C)(C)C)n2c(=O)c(-c3ccco3)nc3ccccc32)cc1 (stereo not given)
IC50 [13]: 1.78 µM (active)

COc1cccc(-c2nc3nc(C)cc(C)n3c2Nc2c(C)cccc2C)c1
IC50 [14]: 28.5 µM (inactive) | IC50 [15]: 15.4 µM (active)
